Measurements as given in patent US12138383B2, “Heating unit for use in a drug delivery device” (ALEXZA PHARMACEUTICALS, INC., priority 2007, dated 2024).

Assay: Aerosol purity of condensation aerosol vaporized from drug-coated substrate in substrate screening apparatus (HPLC of filter extract)
Type: physicochemical
Conditions: for Aerosol Purity (%): 14 μm coating, 30 liters/minute; for Aerosol Purity (% ± SD): perforated 304 stainless steel, 0.4 mg/cm^2, approx. 375° C.
Source text: The substrate screening apparatus 400 is made of a machined plastic (polyoxymethylene, DELRIN® Acetal Resin, DuPont, Wilmington, DE) block 402 with a 2 cm^2 cross-sectional area for mounting a substrate 412. Block 402 includes a first airway 404 extending from first inlet 414 to outlet 422. Block 402 also include a second airway 406 extending from second inlet 416 to substrate 412, where it typically joins the first airway. The substrate 412 is mounted in the substrate screening apparatus 400 across two electrodes 420. A first air flow 414 is established in first airway 404 and a second air flow 416 is established in second airway 406 such that the second air flow 416 passes from the second airway 406 to first airway 404 through holes in the substrate 412. While providing air flows 414 and 416, the substrate 412 is heated, typically by discharging a capacitor (not shown) across the substrate 412. In a one embodiment, the flow of air passing through holes in the substrate 412 is in a direction orthogonal to that of air flow 414. Substrate 412 is coated with a drug composition film. The substrate 412 is heated to vaporized all or a portion of the drug composition. The vaporized drug subsequently cools and condenses to form a condensation aerosol that is carried to the outlet by air flow 414, joined by air flow 416). Accordingly, the condensation aerosol is emitted from the outlet 422.
The test substrates were then coated with a drug composition. The drug was typically dissolved in a volatile organic solvent (e.g., dichloromethane/methanol mixture or acetone or other suitable organic solvent) and then spray-coated onto the test substrates using an automated spray coater. Coating parameters, such as the drug concentration in the coating solution, solution flow rate, were selected to obtain a uniform drug coating of the desired coating density (i.e., mass/area).
Total air flow through the substrate screening apparatus was set by providing air flows 414 and 416 at a desired ratio. (As used herein, “across” air flow refers to air flow 414 and “bottom” air flow refers to air flow 416.) Brass electrodes 420 attached to the substrate screening apparatus 400 were used to clamp the substrate 412 in place and provide electrical connections. For most experiments, a 1-Farad capacitor was used as the energy source. The capacitor was typically charged to 11-14 volts, depending on the desired substrate temperature. A high current relay was used to connect the circuit and discharge the capacitor across the substrate to induce heating and vaporization of the drug.
FIG. 5 is a schematic of another embodiment of a substrate screening apparatus 500 that was used to direct air flow through the holes of coated polyimide film (KAPTON® polyimide film) substrates (see FIGS. 2A and 2B). Substrate screening apparatus 500 is similar in configuration and operation to substrate screening apparatus 400, with the exception that substrate screening apparatus 500 includes two electrodes 502 on the same side of the screening apparatus 500, whereas substrate screening apparatus 400 includes two electrodes 420 on opposite sides of the screening apparatus 400. In the examples using polyimide film substrates described below, a polyimide film substrate coated with a drug composition was placed in substrate screening apparatus 500 across electrodes 502. A computer-controlled power supply was connected to the electrodes. The power supply was typically capable of heating the polyimide film substrate to the target temperature within 300 milliseconds, and the substrate was kept at the target temperature for a duration of 1 second.
To determine aerosol purity and emitted dose, a 2 μm Teflon filter (ZEFLUOR PTFE filters, available from Zefon International, Inc., Ocala, FL) was placed immediately downstream from the screening apparatus during aerosol generation. […]

CN1CCN(CCCN2c3ccccc3Sc3ccc(Cl)cc32)CC1 [Prochlorperazine, prochlorperazine]
Coated Aerosol Purity (%) (coated drug on polyimide film, coating thickness 14 μm): 98.85% | aerosol purity (perforated polyimide film, 100% of air flow through the substrate, up to at least 30 μm coating thickness, 28.3 liters/minute): ≥ 98% | Aerosol Purity (%) (perforated polyimide film, large holes, across:bottom 75:25): 97.7% | Aerosol Purity (%) (perforated polyimide film, large holes, across:bottom 100:0): 97.1% | Aerosol Purity (%) (perforated polyimide film, small holes, across:bottom 75:25): 97.4% | Aerosol Purity (%) (perforated polyimide film, small holes, across:bottom 100:0): 94.8%

C[C@@H]1C[C@H]2[C@@H]3CCC4=CC(=O)C=C[C@]4(C)[C@@]3(Cl)[C@@H](O)C[C@]2(C)[C@@]1(OC(=O)c1ccco1)C(=O)CCl
aerosol purity (non-perforated SULFINERT-treated and heat-passivated 304 stainless steel, 350° C., no air flow ratio): poor

NCC(CC(=O)O)c1ccc(Cl)cc1 (stereo not drawn) [baclofen]
drug purity (aerosol) (perforated polyimide film, across:bottom 27:1, 350° C.): around 20%

CC1(C)O[C@@H]2C[C@H]3[C@@H]4C[C@H](F)C5=CC(=O)C=C[C@]5(C)[C@H]4[C@@H](O)C[C@]3(C)[C@]2(C(=O)CO)O1 [Flunisolide, flunisolide]
Aerosol Purity (% ± SD) (across:bottom 18:10, hole diameter 0.005″, porosity 5%): 80.1 ± 1.8% | Aerosol Purity (% ± SD) (across:bottom 18:10, hole diameter 0.005″, porosity 10%): 81.4 ± 0.9% | Aerosol Purity (% ± SD) (across:bottom 18:10, hole diameter 0.005″, porosity 20%): 90.7 ± 0.7% | Aerosol Purity (% ± SD) (across:bottom 18:10, hole diameter 0.010″, porosity 5%): 83.6 ± 1.4% | Aerosol Purity (% ± SD) (across:bottom 18:10, hole diameter 0.010″, porosity 10%): 75.4 ± 1.2% | Aerosol Purity (% ± SD) (across:bottom 18:10, hole diameter 0.010″, porosity 20%): 80.8 ± 1.4% | Aerosol Purity (% ± SD) (across:bottom 18:10, hole diameter 0.010″, porosity 40%): 85.6 ± 0.8% | Aerosol Purity (% ± SD) (across:bottom 18:10, hole diameter 0.020″, porosity 5%): 77.8 ± 2% | Aerosol Purity (% ± SD) (across:bottom 18:10, hole diameter 0.020″, porosity 10%): 77.2 ± 2.8% | Aerosol Purity (% ± SD) (across:bottom 18:10, hole diameter 0.020″, porosity 20%): 74.7 ± 1% | Aerosol Purity (% ± SD) (across:bottom 18:10, hole diameter 0.020″, porosity 40%): 81.9 ± 1.2% | Aerosol Purity (% ± SD) (across:bottom 18:10, hole diameter 0.040″, porosity 5%): 70.4 ± 1.1% | Aerosol Purity (% ± SD) (across:bottom 18:10, hole diameter 0.040″, porosity 40%): 77 ± 1% | Aerosol Purity (% ± SD) (across:bottom 23:5, hole diameter 0.005″, porosity 5%): 73.6 ± 2.3% | Aerosol Purity (% ± SD) (across:bottom 23:5, hole diameter 0.005″, porosity 10%): 82.7 ± 1.4% | Aerosol Purity (% ± SD) (across:bottom 23:5, hole diameter 0.005″, porosity 20%): 87.9 ± 2% | Aerosol Purity (% ± SD) (across:bottom 23:5, hole diameter 0.010″, porosity 5%): 76.1 ± 0.1% | Aerosol Purity (% ± SD) (across:bottom 23:5, hole diameter 0.010″, porosity 10%): 71.4 ± 0.7% | Aerosol Purity (% ± SD) (across:bottom 23:5, hole diameter 0.010″, porosity 20%): 80.6 ± 3.1% | Aerosol Purity (% ± SD) (across:bottom 23:5, hole diameter 0.010″, porosity 40%): 84.2 ± 0.1% | Aerosol Purity (% ± SD) (across:bottom 23:5, hole diameter 0.020″, porosity 5%): 77.9 ± 1.1% | Aerosol Purity (% ± SD) (across:bottom 23:5, hole diameter 0.020″, porosity 10%): 72.7 ± 1.8% | Aerosol Purity (% ± SD) (across:bottom 23:5, hole diameter 0.020″, porosity 20%): 69.9 ± 0.3% | Aerosol Purity (% ± SD) (across:bottom 23:5, hole diameter 0.020″, porosity 40%): 80 ± 1.3% | Aerosol Purity (% ± SD) (across:bottom 23:5, hole diameter 0.040″, porosity 5%): 68.6 ± 1.1% | Aerosol Purity (% ± SD) (across:bottom 23:5, hole diameter 0.040″, porosity 40%): 74.3 ± 7.3%

cyclobenzaprine fumarate
aerosol purity (perforated polyimide film, all three test conditions (6:1 at 375° C., 3:1 at 350° C., 1:1 at 350° C.)): > 99.7%

CCC(=O)O[C@]1(C(=O)SCF)[C@H](C)C[C@H]2[C@@H]3C[C@H](F)C4=CC(=O)C=C[C@]4(C)[C@@]3(F)[C@@H](O)C[C@@]21C [fluticasone propionate]
aerosol purity (perforated polyimide film, all four test conditions (3:1 and 1:3, 325° C. and 350° C.)): > 97%

CCCc1nn(C)c2c(=O)[nH]c(-c3cc(S(=O)(=O)N4CCN(C)CC4)ccc3OCC)nc12 [sildenafil free base, sildenafil]
aerosol purity (perforated 316 stainless steel, 1:9 across:bottom, drug coating thicknesses up to 6 μm, 28.3 liters/minute): ≥ 97% | aerosol purity (solid 304 stainless steel, 100% air flow across, drug coating thickness 2 μm): ≤ 94% | aerosol purity (solid 304 stainless steel, 100% air flow across, drug coating thicknesses greater than about 1 μm): below 97%
